Assay results published in patent publication US5079358A, “6H-pyrazolo-[4,5,1-d,e]acridin-6-one derivatives having anit-tumor activity” (Kyowa Hakko Kogyo Co., Ltd., priority 1988, dated 1992).
≈ marks a conversion by molar mass, not a printed value.

What follows are molecules tested on human cancer cells (HeLaS3) (assay: Inhibitory effect on growth of human cancer cells (HeLaS3)). Conditions: 72 hours at 37° C., Neutral Red staining, 550 nm.
Type: cell-based
Method: Inhibitory effect on growth of human cancer cells (HeLaS3):
HeLaS, cells were suspended in a medium comprising MEM medium (Nissui Pharmaceutical Co., Ltd.) and 2 mM glutamine (hereinafter referred to as Medium A) to a concentration of 3×10^4 cells/ml. The cell suspension thus prepared was put into wells of a 96-well microtiter plate in an amount of 0.1 ml/well. The cells on the plate were incubated in a CO2 -incubater at 37° C. for 20 hours, and 0.05 ml of a sample containing a test compound and appropriately diluted with Medium A was added to each well. The cells were further incubated in the CO2 -incubater at 37° C. for 72 hours. After the culture supernatant was removed, a medium comprising Medium A and 0.02% Neutral Red was added to the residue in an amount of 0.1 ml/well, followed by incubation at 37° C. for one hour in the CO2 -incubater, whereby the cells were stained. The culture supernatant was removed and the residue was washed once with physiological saline solution. The pigment was extracted with 0.001 N-HCl/30%-ethanol, and the absorbance was determined at 550 nm with a microplate reader. The absorbance determined for intact cells was compared with that for the cells treated with the test compound of a known concentration, and the concentration of the test compound for inhibiting 50% growth of the cells (IC50) was calculated.

Structure (SMILES)	IC50
O=c1c2ccccc2n2nc(CN(CCCl)CCCl)c3cccc1c32 [Compound 9, 2-Bis(2-chloroethyl)aminomethyl-6H-pyrazolo[4,5,1-d,e]acridin-6-one]	0.92 µg/mL (≈ 2.46 µM)

Same assay, conditions: Homo sapiens, HeLa S3, 72 hours at 37° C., Neutral Red staining, 550 nm, read-out: IC50

Structure (SMILES)	IC50
COc1cccc2c1C(=O)c1c(O)c3c(c(O)c1C2=O)C[C@@](O)(C(=O)CO)C[C@@H]3O[C@H]1C[C@H](N)[C@H](O)[C@H](C)O1 [Adriamycin, reference compound]	0.009 to 0.05 µg/mL (≈ 0.0166 to 0.092 µM)
CN(C)CCNC(=O)c1nn2c3ccccc3c(=O)c3cccc1c32 [Compound 3, 2-(2-Dimethylaminoethyl)aminocarbonyl-6H-pyrazolo[4,5,1-d,e]acridin-6-one]	2.5 µg/mL (≈ 7.48 µM)
COc1cccc2c1c(=O)c1cccc3c(C(=O)NCCN(C)C)nn2c31 [Compound 4, 7-Methoxy-2-(2-dimethylaminoethyl)aminocarbonyl-6H-pyrazolo[4,5,1-d,e]acridin-6-one]	2.98 µg/mL (≈ 8.18 µM)
O=C(NCCN1CCOCC1)c1nn2c3ccccc3c(=O)c3cccc1c32 [Compound 5, 2-(2-Morpholinoethyl)aminocarbonyl-6H-pyrazolo[4,5,1-d,e]acridin-6-one]	7.2 µg/mL (≈ 19.1 µM)
O=c1c2ccccc2n2nc(CN(CCO)CCO)c3cccc1c32 [Compound 7, 2-Bis(2-hydroxyethyl)aminomethyl-6H-pyrazolo[4,5,1-d,e]acridin-6-one]	8.89 µg/mL (≈ 26.4 µM)
O=c1c2ccccc2n2nc(CNCCN3CCOCC3)c3cccc1c32 [Compound 8, 2-(2-Morpholinoethyl)aminomethyl-6H-pyrazolo[4,5,1-d,e]acridin-6-one]	4.9 µg/mL (≈ 13.5 µM)
Cc1nn2c3ccccc3c(=O)c3c(N)ccc1c32 [Compound 11, 5-Amino-2-methyl-6H-pyrazolo[4,5,1-d,e]acridin-6-one]	2.16 µg/mL (≈ 8.67 µM)
NCCNCc1nn2c3ccccc3c(=O)c3c(N)ccc1c32 [Compound 15, 5-Amino-2-(2-aminoethyl]aminomethyl-6H-pyrazolo[4,5,1-d,e]acridin-6-one]	0.71 µg/mL (≈ 2.31 µM)
Nc1ccc2c(CNCCNCCO)nn3c4ccccc4c(=O)c1c23 [Compound 16, 5-Amino-2-[2-(2-hydroxyethylamino)ethyl]aminomethyl-6H-[4,5,1-d,e]acridin-6-one]	0.87 µg/mL (≈ 2.48 µM)
Nc1ccc2c(CNCCN3CCOCC3)nn3c4ccccc4c(=O)c1c23 [Compound 17, 5-Amino-2-(2-morpholinoethyl)aminomethyl-6H-[4,5,1-d,e]-acridin-6-one]	1.96 µg/mL (≈ 5.19 µM)
NCCCNCc1nn2c3ccccc3c(=O)c3c(NCCCN)ccc1c32 [Compound 22, 5-(3-Aminopropyl)amino-2-(3-aminopropyl)aminomethyl-6H-pyrazolo[4,5,1-d,e]acridin-6-one]	0.078 µg/mL (≈ 0.206 µM)
COc1cccc2c1c(=O)c1c(NCCCN)ccc3c(CNCCCN)nn2c31 [Compound 26, 5-(3-Aminopropyl)amino-2-(3-aminopropyl)aminomethyl-7-methoxy-6H-pyrazolo[4,5,1-d,e]acridin-6-one]	0.22 µg/mL (≈ 0.539 µM)
NCCCNCc1nn2c3cccc(O)c3c(=O)c3c(NCCCN)ccc1c32 [Compound 29, 5-(3-Aminopropyl)amino-2-(3-aminopropyl)aminomethyl-7-hydroxy-6H-pyrazolo[4,5,1-d,e]acridin-6-one]	0.014 µg/mL (≈ 0.0355 µM)
CNCCCNCc1nn2c3ccccc3c(=O)c3c(NCCCNC)ccc1c32 [Compound 32, 5-(3-Methylaminopropyl)amino-2-(3-methylaminopropyl)aminomethyl-6H-pyrazolo[4,5,1-d,e]acridin-6-one]	1.16 µg/mL (≈ 2.85 µM)
CNCCNCc1nn2c3ccccc3c(=O)c3c(NCCNC)ccc1c32 [Compound 33, 5-(2-Methylaminoethyl)amino-2-(2-methylaminoethyl)aminomethyl-6H-pyrazolo[4,5,1-d,e]acridin-6-one]	2.69 µg/mL (≈ 7.11 µM)
CCNCCNCc1nn2c3ccccc3c(=O)c3c(NCCNCC)ccc1c32 [Compound 34, 5-(2-Ethylaminoethyl)amino-2-(2-ethylaminoethyl)aminomethyl-6H-pyrazolo[4,5,1-d,e]acridin-6-one]	1.72 µg/mL (≈ 4.23 µM)
O=c1c2ccccc2n2nc(CNCCN3CCOCC3)c3ccc(NCCN4CCOCC4)c1c32 [Compound 35, 5-(2-Morpholinoethyl)amino-2-(2-morpholinoethyl)aminomethyl-6H-pyrazolo[4,5,1-d,e]acridin-6-one]	3.37 µg/mL (≈ 6.87 µM)
CCN(CC)CCNCc1nn2c3ccccc3c(=O)c3c(NCCN(CC)CC)ccc1c32 [Compound 36, 5-(2-Diethylaminoethyl)amino-2-(2-diethylaminoethyl)aminomethyl-6H-pyrazolo[4,5,1-d,e]acridin-6-one]	3.1 µg/mL (≈ 6.7 µM)
NCCCCNCc1nn2c3ccccc3c(=O)c3c(NCCCCN)ccc1c32 [Compound 37, 5-(4-Aminobutyl)amino-2-(4-aminobutyl)aminomethyl-6H-pyrazolo[4,5,1-d,e]acridin-6-one]	2.11 µg/mL (≈ 5.19 µM)
CNCCNc1ccc2c(CN(C)CCN)nn3c4ccccc4c(=O)c1c23 [Compound 38, 2-[N-(2-aminoethyl)-N-methyl]aminomethyl-5-(2-methylaminoethyl)amino-6H-pyrazolo[4,5,1-d,e]acridin-6-one]	2.89 µg/mL (≈ 7.64 µM)
CN(C)CCCNCc1nn2c3ccccc3c(=O)c3c(NCCCN(C)C)ccc1c32 [Compound 39, 5-(3-Dimethylaminopropyl)amino-2-(3-dimethylaminopropyl)aminomethyl-6H-pyrazolo[4,5,1-d,e]acridin-6-one]	8.33 µg/mL (≈ 19.2 µM)
CN(C)CCNCc1nn2c3cccc(O)c3c(=O)c3c(NCCNCCO)ccc1c32 [Compound 42]	0.12 µg/mL (≈ 0.274 µM)
NCCNc1ccc2c(CNCCOCCO)nn3c4cccc(O)c4c(=O)c1c23 [Compound 62, 5-(2-Aminoethyl)amino-7-hydroxy-2-[2-(2-hydroxyethyloxy)ethyl]aminomethyl-6H-pyrazolo[4,5,1-d,e]acridin-6-one]	0.0023 µg/mL (≈ 0.00559 µM)

Each molecule was assayed on P388 ascites tumor (assay: Effect on P388 ascites tumor (increased life span)). Conditions: P388, ip; dose 12.5 mg/kg, intraperitoneal, 24 hours after implantation, male CDF1 mouse.
Type: in vivo
Method: Effect on P388 ascites tumor:
P388 tumor cells (10^6 cells) were implanted intraperitoneally into a DBA/2 mouse and the cells were collected from the ascitic fluid of the animal 7 days after the implantation. The cells were ashed once with sterilized physiological saline solution and then suspended in a sterilized physiological saline solution to prepare a cell suspension containing 5×10^6 cells/ml. The suspension (0.2 ml) was intraperitoneally inoculated into a male CDF1 mouse aged 6 weeks. A test compound was dissolved in physiological saline solution and intraperitoneally administered to the animal 24 hours after implantation of the tumor cells. One test group comprised 5 mice. The mean survival time (days) of a test group which received a test compound at a specified concentration was calculated as T from survival days of animals in the group. ON the other hand, the mean survival time (days) of the non-administered group (C) was obtained in the same manner, and the increased life span (ILS %) was calculated as [(T-C)/C]×100 (%).

Structure (SMILES)	ILS at 12.5 mg/kg
NCCCNCc1nn2c3cccc(O)c3c(=O)c3c(NCCCN)ccc1c32 [Compound 29, 5-(3-Aminopropyl)amino-2-(3-aminopropyl)aminomethyl-7-hydroxy-6H-pyrazolo[4,5,1-d,e]acridin-6-one]	> 121%
NCCNc1ccc2c(CNCCSCCO)nn3c4cccc(O)c4c(=O)c1c23 [Compound 59, 5-(2-Aminoethyl)amino-7-hydroxy-2-[2-(2-hydroxyethylthio)ethyl]aminomethyl-6H-pyrazolo[4,5,1-d,e]acridin-6-one]	> 134%
O=c1c2c(O)cccc2n2nc(CNCCOCCO)c3ccc(NCCNCCO)c1c32 [Compound 66, 7-Hydroxy-5-[2-(2-hydroxyethylamino)ethyl]amino-2-[2-(2-hydroxyethyloxy)ethyl]aminomethyl-6H-pyrazolo[4,5,1-d,e]acridin-6-one]	> 133%
CN(C)CCCNCc1nn2c3cccc(O)c3c(=O)c3c(NCCCN(C)C)ccc1c32 [Compound 70, 5-(3-Dimethylaminopropyl)amino-2-(3-dimethylaminopropyl)aminomethyl-7-hydroxy-6H-pyrazolo[4,5,1-d,e]acridin-6-one]	> 112%

Same assay, conditions: P388, ip; dose 25 mg/kg, intraperitoneal, 24 hours after implantation, male CDF1 mouse

Structure (SMILES)	ILS at 25 mg/kg
NCCCNCc1nn2c3ccccc3c(=O)c3c(NCCCN)ccc1c32 [Compound 22, 5-(3-Aminopropyl)amino-2-(3-aminopropyl)aminomethyl-6H-pyrazolo[4,5,1-d,e]acridin-6-one]	52%
COc1cccc2c1c(=O)c1c(NCCN)ccc3c(CNCCN)nn2c31 [Compound 25, 5-(2-Aminoethyl)amino-2-(2-aminoethyl)aminomethyl-7-methoxy-6H-pyrazolo[4,5,1-d,e]acridin-6-one]	39%
COc1cccc2c1c(=O)c1c(NCCCN)ccc3c(CNCCCN)nn2c31 [Compound 26, 5-(3-Aminopropyl)amino-2-(3-aminopropyl)aminomethyl-7-methoxy-6H-pyrazolo[4,5,1-d,e]acridin-6-one]	28%

Same assay, conditions: P388, ip; dose 37.5 mg/kg, intraperitoneal, 24 hours after implantation, male CDF1 mouse

Structure (SMILES)	ILS at 37.5 mg/kg
NCCNCc1nn2c3ccccc3c(=O)c3c(NCCN)ccc1c32 [Compound 21, 5-(2-Aminoethyl)amino-2-(2-aminoethyl)aminomethyl-6H-pyrazolo[4,5,1-d,e]acridin-6-one]	50%

Same assay, conditions: P388, ip; dose 50 mg/kg, intraperitoneal, 24 hours after implantation, male CDF1 mouse

Structure (SMILES)	ILS at 50 mg/kg
CN(C)CCNCc1nn2c3ccccc3c(=O)c3c(NCCN(C)C)ccc1c32 [Compound 23, 5-(2-Dimethylaminoethyl)amino-2-(2-dimethylaminoethyl)aminomethyl-6H-pyrazolo[4,5,1-d,e]acridin-6-one]	46%
CN(C)CCNCc1nn2c3cccc(O)c3c(=O)c3c(NCCN(C)C)ccc1c32 [Compound 30, 5-(2-Dimethylaminoethyl)amino-2-(2-dimethylaminoethyl)aminomethyl-7-hydroxy-6H-pyrazolo[4,5,1-d,e]acridin-6-one]	61%

Same assay, conditions: P388, ip; dose 75 mg/kg, intraperitoneal, 24 hours after implantation, male CDF1 mouse

Structure (SMILES)	ILS at 75 mg/kg
O=c1c2c(O)cccc2n2nc(CNCCO)c3ccc(Br)c1c32 [Compound 67, 5-Bromo-7-hydroxy-2-(2-hydroxyethyl)aminomethyl-6H-pyrazolo[4,5,1-d,e]acridin-6-one]	31%

Same assay, conditions: P388, ip; dose 4-6 mg/kg, intraperitoneal, 24 hours after implantation, male CDF1 mouse

Structure (SMILES)	ILS at 4 mg/kg
CO[C@@]12[C@H](COC(N)=O)C3=C(C(=O)C(C)=C(N)C3=O)N1C[C@@H]1N[C@@H]12 [Mitomycin C, reference compound]	57 to 67%

Same assay, conditions: dose 18.8 mg/kg, intraperitoneal, 24 hours after implantation, male CDF1 mouse

Structure (SMILES)	ILS (%)
O=c1c2ccccc2n2nc(CN(CCCl)CCCl)c3cccc1c32 [Compound 9, 2-Bis(2-chloroethyl)aminomethyl-6H-pyrazolo[4,5,1-d,e]acridin-6-one]	28%
